Like-named read-outs stand apart in the source and are kept apart here.
Test: 14-day oral gavage toxicokinetic study in rats
Type: in vivo
Conditions: male, rat, plasma, po; for concentration at 8 h / concentration at 12 h / concentration at 24 h / concentration at […] / concentration at 0.5 h / concentration at 1 h / concentration at 2 h / concentration at 4 h: rats; for half-life: read-out: t½ (converted)
Protocol: Plasma was obtained from blood samples collected from rats in a composite sampling scheme, with 3 samples collected per sex, per dose, at each target collection time, as illustrated in Table 21 to Table 25. Samples were collected from the vehicle control group on Day 1 and Day 14 at 3 hour after administration. […] Blood samples were collected in tubes containing K3EDTA as an anticoagulant and placed on ice until processed to plasma via centrifugation. Samples were stored frozen at −80° C. until shipment to the bioanalytical laboratory for analysis.
The following parameters were determined:
Cmax: Maximum observed plasma concentration (ng/mL).
A value of 0 ng/mL was assigned to all values below the lower limit of quantitation (BLQ, <10.0 ng/mL).
AUC(0-inf): Area under the plasma concentration vs. time curve extrapolated from 0 to infinity (ng*h/mL), calculated as AUC(0-t)+AUC(t-inf) where AUC(t-inf) is calculated as last measurable concentration (CLast) divided by ke, where ke is the elimination rate constant determined by linear regression of the last three analytically measured points on the log plasma concentration vs. time curve. The selection criteria of the data points for inclusion in the calculation of ke required that at least three data points representing the terminal phase (after Tmax) were regressed and that R2≧0.850 when rounded.
CL: Clearance (L/h/kg), calculated as the dose divided by AUC(0-t).
Vd: Volume of distribution (L/kg), calculated as dose divided by the product of ke and AUC(0-inf).
Vdss: Steady state volume of distribution (L/kg), calculated as clearance […] mean residence time, where mean residence time is calculated as the area under the first moment curve divided by AUC(0-t).
t½: Elimination half-life (h), calculated as ln(2)/ke, where ke is the elimination rate constant determined by linear regression. Half-life was defined as not determined if regression criteria (specified in AUC(0-inf) above) were not met.
Cmax/Dose: Normalized Cmax, calculated as Cmax divided by total dose.
AUC/Dose: Normalized AUC, calculated as AUC(0-t) divided by total dose.
ii. Statistical Analysis Mean and standard deviation (SD) were calculated in Watson. Values of BLQ were assigned a value of 0 ng/mL for mean calculations. Concentration values and derived TK parameters were reported to three significant figures.

[1] = 15 mg/kg, oral 15 mg/kg, Study Day 1, Male
[2] = 15 mg/kg, oral 15 mg/kg, Study Day 14, Male
[3] = 30 mg/kg, oral 30 mg/kg, Study Day 1, Male

`CN1CCN(c2ccc(Nc3ncc4cc5n(c4n3)C3(CCCCC3)CNC5=O)nc2)CC1` [Compound 1, 2′-((5-(4-methylpiperazin-1-yl)pyridin-2-yl)amino)-7′,8′-dihydro-6′H-spiro[cyclohexane-1,9′-pyrazino[1′,2′:1,5]pyrrolo[2,3-d]pyrimidin]-6′-one] showed a concentration at 8 h (15 mg/kg, Mean Compound 1 Plasma Concentration, oral 15 mg/kg, Day 1, 8 h, Male) of 1020 ng/mL, a concentration at 12 h (15 mg/kg, Mean Compound 1 Plasma Concentration, oral 15 mg/kg, Day 1, 12 h, Male) of 618 ng/mL and a concentration at 24 h (15 mg/kg, Mean Compound 1 Plasma Concentration, oral 15 mg/kg, Day 1, 24 h, Male) of 84.5 ng/mL. It also gave a concentration at […] (15 mg/kg, Mean Compound 1 Plasma Concentration, oral 15 mg/kg, Day 1, […], Male) of 35.6 ng/mL, a concentration at 0.5 h (15 mg/kg, Mean Compound 1 Plasma Concentration, oral 15 mg/kg, Day 14, 0.5 h, Male) of 740 ng/mL and a concentration at 1 h (15 mg/kg, Mean Compound 1 Plasma Concentration, oral 15 mg/kg, Day 14, 1 h, Male) of 842 ng/mL. It also gave a concentration at 2 h (15 mg/kg, Mean Compound 1 Plasma Concentration, oral 15 mg/kg, Day 14, 2 h, Male) of 1320 ng/mL, a concentration at 4 h (15 mg/kg, Mean Compound 1 Plasma Concentration, oral 15 mg/kg, Day 14, 4 h, Male) of 1080 ng/mL and a concentration at 8 h (15 mg/kg, Mean Compound 1 Plasma Concentration, oral 15 mg/kg, Day 14, 8 h, Male) of 1170 ng/mL. It also gave a concentration at 12 h (15 mg/kg, Mean Compound 1 Plasma Concentration, oral 15 mg/kg, Day 14, 12 h, Male) of 626 ng/mL, a concentration at 24 h (15 mg/kg, Mean Compound 1 Plasma Concentration, oral 15 mg/kg, Day 14, 24 h, Male) of 60.6 ng/mL and a concentration at […] (15 mg/kg, Mean Compound 1 Plasma Concentration, oral 15 mg/kg, Day 14, […], Male) of 107 ng/mL. It also gave an AUC(0-inf) [1] of 16000 ng·h/mL, an AUC(0-t) [1] of 15500 ng·h/mL and a Cmax [1] of 1160 ng/mL. For the same compound, the Tmax [1] was 4 h, the half-life [1] was 4.39 h and the AUC(0-t) [2] was 16300 ng·h/mL. The Cmax [2] was 1320 ng/mL, the Tmax [2] was 2 h and the half-life [2] was 3.7 h. It also gave a concentration at 0.5 h (30 mg/kg, Individual Compound 1 Plasma Concentration, daily oral 30 mg/kg, Day 1, Male, 0.5 h) of 1450 ng/mL, a concentration at 1 h (30 mg/kg, Individual Compound 1 Plasma Concentration, daily oral 30 mg/kg, Day 1, Male, 1 h) of 1620 ng/mL and a concentration at 2 h (30 mg/kg, Individual Compound 1 Plasma Concentration, daily oral 30 mg/kg, Day 1, Male, 2 h) of 1810 ng/mL. It also gave a concentration at 4 h (30 mg/kg, Individual Compound 1 Plasma Concentration, daily oral 30 mg/kg, Day 1, Male, 4 h) of 2660 ng/mL, a concentration at 8 h (30 mg/kg, Individual Compound 1 Plasma Concentration, daily oral 30 mg/kg, Day 1, Male, 8 h) of 2000 ng/mL and a concentration at 12 h (30 mg/kg, Individual Compound 1 Plasma Concentration, daily oral 30 mg/kg, Day 1, Male, 12 h) of 1930 ng/mL. It also gave a concentration at 24 h (30 mg/kg, Individual Compound 1 Plasma Concentration, daily oral 30 mg/kg, Day 1, Male, 24 h) of 280 ng/mL, a concentration at 0.5 h (30 mg/kg, Individual Compound 1 Plasma Concentration, daily oral 30 mg/kg, Day 14, Male, 0.5 h) of 977 ng/mL and a concentration at 2 h (30 mg/kg, Individual Compound 1 Plasma Concentration, daily oral 30 mg/kg, Day 14, Male, 2 h) of 1630 ng/mL. The concentration at 4 h (30 mg/kg, Individual Compound 1 Plasma Concentration, daily oral 30 mg/kg, Day 14, Male, 4 h) was 2080 ng/mL, the concentration at 8 h (30 mg/kg, Individual Compound 1 Plasma Concentration, daily oral 30 mg/kg, Day 14, Male, 8 h) was 1750 ng/mL and the concentration at 12 h (30 mg/kg, Individual Compound 1 Plasma Concentration, daily oral 30 mg/kg, Day 14, Male, 12 h) was 1230 ng/mL. For the same compound, the concentration at 24 h (30 mg/kg, Individual Compound 1 Plasma Concentration, daily oral 30 mg/kg, Day 14, Male, 24 h) was 208 ng/mL, the concentration at […] (30 mg/kg, Individual Compound 1 Plasma Concentration, daily oral 30 mg/kg, Day 14, Male, […]) was 197 ng/mL and the concentration at 0.5 h (30 mg/kg, Mean Compound 1 Plasma Concentration, oral 30 mg/kg, Day 1, 0.5 h, Male) was 1420 ng/mL. It also gave a concentration at 1 h (30 mg/kg, Mean Compound 1 Plasma Concentration, oral 30 mg/kg, Day 1, 1 h, Male) of 1400 ng/mL, a concentration at 2 h (30 mg/kg, Mean Compound 1 Plasma Concentration, oral 30 mg/kg, Day 1, 2 h, Male) of 1620 ng/mL and a concentration at 4 h (30 mg/kg, Mean Compound 1 Plasma Concentration, oral 30 mg/kg, Day 1, 4 h, Male) of 2240 ng/mL. It also gave a concentration at 8 h (30 mg/kg, Mean Compound 1 Plasma Concentration, oral 30 mg/kg, Day 1, 8 h, Male) of 1860 ng/mL, a concentration at 24 h (30 mg/kg, Mean Compound 1 Plasma Concentration, oral 30 mg/kg, Day 1, 24 h, Male) of 234 ng/mL and a concentration at […] (30 mg/kg, Mean Compound 1 Plasma Concentration, oral 30 mg/kg, Day 1, […], Male) of 208 ng/mL. It also gave a concentration at 0.5 h (30 mg/kg, Mean Compound 1 Plasma Concentration, oral 30 mg/kg, Day 14, 0.5 h, Male) of 993 ng/mL, a concentration at 1 h (30 mg/kg, Mean Compound 1 Plasma Concentration, oral 30 mg/kg, Day 14, 1 h, Male) of 1530 ng/mL and a concentration at 2 h (30 mg/kg, Mean Compound 1 Plasma Concentration, oral 30 mg/kg, Day 14, 2 h, Male) of 1590 ng/mL. The concentration at 4 h (30 mg/kg, Mean Compound 1 Plasma Concentration, oral 30 mg/kg, Day 14, 4 h, Male) was 2030 ng/mL, the concentration at 8 h (30 mg/kg, Mean Compound 1 Plasma Concentration, oral 30 mg/kg, Day 14, 8 h, Male) was 1880 ng/mL and the concentration at 12 h (30 mg/kg, Mean Compound 1 Plasma Concentration, oral 30 mg/kg, Day 14, 12 h, Male) was 1300 ng/mL. It also gave a concentration at […] (30 mg/kg, Mean Compound 1 Plasma Concentration, oral 30 mg/kg, Day 14, […], Male) of 207 ng/mL, an AUC(0-inf) [3] of 34700 ng·h/mL and an AUC(0-t) [3] of 33000 ng·h/mL. It also gave a Cmax [3] of 2240 ng/mL, a Tmax [3] of 4 h and a half-life [3] of 5.05 h. For the same compound, the AUC(0-inf) (30 mg/kg, oral 30 mg/kg, Study Day 14, Male) was 30700 ng·h/mL.

— patent US20160220569A1, “CDK4/6 Inhibitor Dosage Formulations For The Protection Of Hematopoietic Stem And Progenitor Cells During Chemotherapy” (G1 Therapeutics, Inc., priority 2015, published 2016)
